Data from patent publication US20040106148A1, “Polypeptides” (priority 2000, published 2004).

Assays:
[1] = molecular target: T1, human PEPP1 PH domain (Ser-Ala-Ser to Arg-Pro-Gln, accession N31123), GST fusion (Homo sapiens, UniProt Q9H4M7); experiment: Surface plasmon resonance (BIACore), GST fusion binding to phosphoinositide in supported lipid monolayer; settings: supported phosphatidylcholine monolayers, 1:1 binding model, NB, no binding detected, read-out: Apparent Kd
T1 construct: DNA probe corresponding to the N-terminal 15 to 169 residues of PEPP1; made in house; host or cells: E. coli BL21 (pGEX4T-1)
Source text: (§1) Cloning of PH domains and preparation of expression constructs. All the human and mouse EST's were obtained from the I.M.A.G.E. Consortium and sequenced. The plant EST (accession number T04439) encoding a full length clone of AtPH1 was obtained from the Arabidopsis Biological Research. Centre (Ohio University). The sequence of each EST was verified and the full length PH domain of each EST was amplified by PCR using the Hi-fidelity PCR system with primers designed to incorporate a Kozak site, an initiating ATG codon followed by a myc epitope tag and a stop codon after the PH domain. […]
(§2) Expression of GST-PH domains in E.coli. The pGEX4T-1 constructs encoding the PH domains of FAPP1, AtPH1, PEPP1, LL5α, LL5β, evectin-2 and PH30 were transformed into BL21 E.coli cells and a 0.5 L culture was grown at 37° C. in Luria Broth containing 100 μg/ml ampicillin, until the absorbance at 600 nm was 0.6. […]
(§3) Kinetic analyses of the interactions between the GST PH domain fusions and the polyphosphoinositides were made using surface plasmon resonance based procedures as described previously, with the following modifications. […] Data were analysed using the bimolecular interaction model and the global fitting feature of the BIAevaluation 3 software for several sensorgrams at different protein concentrations. […]

[2] = molecular target: human FAPP1 PH domain (residues 1 to 99), GST fusion (Homo sapiens, UniProt Q9HB20); experiment: Protein-lipid overlay; format: binding; settings: FIG. 2 and Table 2
Method: (§4) FIG. 2. Phosphoinositide binding properties of the novel PH domains. The ability of the indicated GST fusion proteins to bind a variety of phosphoinositides was analysed using a protein-lipid overlay. Serial dilutions of the indicated phosphoinositides (100 pmol, 50 pmol, 25 pmol, 12.5 pmol, 6.3 pmol, 3.1 pmol and 1.6 pmol) were spotted onto a nitrocellulose membranes which were then incubated with the purified GST fusion proteins. The membranes were washed and the GST-fusion proteins bound to the membrane by virtue of their interaction with lipid were detected using a GST antibody. A representative of at least 3 separate experiments carried out is shown.
(§5) Protein-Lipid overlay. To assess the phosphoinositide binding properties of each PH domain, a protein-lipid overlay assay was performed using the GST fusion proteins as described previously. Briefly, 1 μl of lipid solution containing 1-100 pmol of phospholipids dissolved in a mixture of choroform:methanol:water (1:2:0.8) was spotted onto Hybond-C extra membrane and allowed to dry at room temperature for 1 h. […]

[3] = molecular target: human FAPP2 (accession AF380162), GST fusion (Homo sapiens, UniProt Q96JA3); experiment: Protein-lipid overlay; format: binding; settings: FIG. 11
Method: as §4
Methods used are equivalent to those specified in the legend to FIG. 2.
as §5

[4] = molecular target: T2, human FAPP1 PH domain (residues 1 to 99, accession W32183), GST fusion (Homo sapiens, UniProt Q9HB20); experiment: Surface plasmon resonance (BIACore), GST fusion binding to phosphoinositide in supported lipid monolayer; settings: supported phosphatidylcholine monolayers, 1:1 binding model, NB, no binding detected, read-out: Apparent Kd
T2 construct: made in house; host or cells: E. coli BL21 (pGEX4T-1)
Source text: as §1, §2, §3

GST-DAPP1 = settings: control; cited from earlier work
[5] = molecular target: human evectin-2 PH domain (residues 1 to 167), GST fusion (Homo sapiens, UniProt Q96CS7); experiment: Protein-lipid overlay; format: binding; settings: FIG. 2
Method: as §4, §1

[6] = molecular target: T3, mouse TAPP2 C-terminal PH domain (residues 174 to 425), GST fusion (Mus musculus, UniProt Q9ERS5); experiment: Protein-lipid overlay; format: binding; settings: protein-lipid overlay (FIG. 2)
T3 construct: made in house; host or cells: human embryonic kidney 293 cells (pEBG-2T)
Method: as §4
(§6) FIG. 4. Comparison of the phosphoinositide binding properties of the N-terminal and C-terminal PH domains of TAPP1 and TAPP2. The ability of wild type and mutant forms of full length (FL) and isolated N-terminal (NT) and C-terminal (CT) PH domains of TAPP1 and TAPP2 GST-fusion proteins to interact with phosphoinositides were analysed using a protein-lipid overlay. Serial dilutions of the indicated phosphoinositides (100 pmol, 50 pmol, 25 pmol, 12.5 pmol, 6.3 pmol, 3.1 pmol and 1.6 pmol) were spotted onto a nitrocellulose membrane which was then incubated with the indicated purified GST fusion proteins. The membranes were washed and the GST-fusion proteins bound to the membrane by virtue of their interactions with lipid were detected using a GST antibody. A representative experiment of three is shown. The isolated N-terminal PH domain of human TAPP1 comprises residues 1 to 147, the isolated C-terminal PH domain of human TAPP1 comprises residues 95 to 404, the isolated N-terminal PH domain of mouse TAPP2 comprises residues 1 to 131 and the isolated C-terminal PH of mouse TAPP2 comprises residues 174 to 425.
(§7) Protein-Lipid overlay. To assess the phosphoinositide binding properties of each PH domain, a protein-lipid overlay assay was performed using the GST fusion proteins as described previously. […] The membrane was blocked in 3% (by mass) fatty acid-free BSA in TBST (50 mM Tris/HCl pH 7.5, 150 mM NaCl and 0.1% Tween-20 (by vol) for lh. The membrane was then incubated overnight at 4° C. with gentle agitation in the same solution containing 0.2 μg/ml of the indicated GST fusion protein. The membranes were washed 6 times over 30 min in TBST and then incubated for 1 h with 1/1000 dilution of anti-GST monoclonal antibody (Sigma). The membranes were washed as before, then incubated for 1 h with 1/5000 dilution of anti-mouse-HRP conjugate (Pierce). Finally, the membranes were washed 12 times over 1 h in TBST and the GST-fusion protein bound to the membrane by virtue of its interaction with phospholipid was detected by enhanced chemiluminescence.

[7] = molecular target: human TAPP1 C-terminal PH domain (residues 95 to 404), GST fusion (Homo sapiens, UniProt Q9HB21); experiment: Protein-lipid overlay; format: binding; settings: protein-lipid overlay (FIG. 2)
Method: as §4, §6, §7

GST-GRP1 = settings: control; cited from earlier work
[8] = system: 6 of the PH domains identified (GST fusions); experiment: Phosphoinositide binding of PH domains (protein-lipid overlay or surface plasmon resonance); settings: data not shown
Method: Protein-Lipid overlay. To assess the phosphoinositide binding properties of each PH domain, a protein-lipid overlay assay was performed using the GST fusion proteins as described previously. Briefly, 1 μl of lipid solution containing 1-100 pmol of phospholipids dissolved in a mixture of choroform:methanol:water (1:2:0.8) was spotted onto Hybond-C extra membrane and allowed to dry at room temperature for 1 h. The membrane was blocked in 3% (by mass) fatty acid-free BSA in TBST (50 mM Tris/HCl pH 7.5, 150 mM NaCl and 0.1% Tween-20 (by vol) for lh. The membrane was then incubated overnight at 4° C. with gentle agitation in the same solution containing 0.2 μg/ml of the indicated GST fusion protein. The membranes were washed 6 times over 30 min in TBST and then incubated for 1 h with 1/1000 dilution of anti-GST monoclonal antibody (Sigma). The membranes were washed as before, then incubated for 1 h with 1/5000 dilution of anti-mouse-HRP conjugate (Pierce). Finally, the membranes were washed 12 times over 1 h in TBST and the GST-fusion protein bound to the membrane by virtue of its interaction with phospholipid was detected by enhanced chemiluminescence. […]
We studied the specificity and affinity of interaction of the PH domains for phosphoinositide lipids using either a “protein-lipid overlay” assay (FIG. 2) or the more quantitative surface plasmon resonance based approach (Table 2). […]

[9] = system: human phospholipase Cδ1 PH domain (residues 20 to 184), GST fusion; settings: control; cited from earlier work
[10] = system: PH domains whose lipid binding properties were investigated in FIG. 2 (GST fusions); experiment: Protein-lipid overlay; settings: data not shown
Method: as §4
Protein-Lipid overlay. To assess the phosphoinositide binding properties of each PH domain, a protein-lipid overlay assay was performed using the GST fusion proteins as described previously. Briefly, 1 μl of lipid solution containing 1-100 pmol of phospholipids dissolved in a mixture of choroform:methanol:water (1:2:0.8) was spotted onto Hybond-C extra membrane and allowed to dry at room temperature for 1 h. The membrane was blocked in 3% (by mass) fatty acid-free BSA in TBST (50 mM Tris/HCl pH 7.5, 150 mM NaCl and 0.1% Tween-20 (by vol) for lh. The membrane was then incubated overnight at 4° C. with gentle agitation in the same solution containing 0.2 μg/ml of the indicated GST fusion protein. The membranes were washed 6 times over 30 min in TBST and then incubated for 1 h with 1/1000 dilution of anti-GST monoclonal antibody (Sigma). The membranes were washed as before, then incubated for 1 h with 1/5000 dilution of anti-mouse-HRP conjugate (Pierce). Finally, the membranes were washed 12 times over 1 h in TBST and the GST-fusion protein bound to the membrane by virtue of its interaction with phospholipid was detected by enhanced chemiluminescence.

Chain of human FAPP1 PH domain (residues 1 to 99), GST fusion (Q9HB20 1-99): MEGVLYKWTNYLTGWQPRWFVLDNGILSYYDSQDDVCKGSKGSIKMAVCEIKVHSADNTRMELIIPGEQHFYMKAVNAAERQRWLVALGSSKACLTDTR
Chain of human FAPP2 (accession AF380162), GST fusion (Q96JA3 whole entry, the tested form may be a part): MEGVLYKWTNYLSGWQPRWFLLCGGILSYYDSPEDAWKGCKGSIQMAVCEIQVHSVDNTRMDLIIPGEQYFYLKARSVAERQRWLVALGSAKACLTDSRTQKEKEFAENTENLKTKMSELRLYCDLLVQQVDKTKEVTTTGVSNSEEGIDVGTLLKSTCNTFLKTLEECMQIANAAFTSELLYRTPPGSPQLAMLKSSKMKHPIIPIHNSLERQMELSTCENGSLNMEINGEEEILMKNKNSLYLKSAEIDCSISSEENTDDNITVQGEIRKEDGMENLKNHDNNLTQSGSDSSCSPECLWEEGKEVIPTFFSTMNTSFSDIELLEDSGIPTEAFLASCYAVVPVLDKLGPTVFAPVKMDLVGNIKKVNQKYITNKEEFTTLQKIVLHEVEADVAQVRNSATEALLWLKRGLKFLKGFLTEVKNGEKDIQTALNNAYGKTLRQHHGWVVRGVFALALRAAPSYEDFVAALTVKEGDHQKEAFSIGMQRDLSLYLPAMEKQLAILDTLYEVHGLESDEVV
T2 sequence (Q9HB20 1-99, one chain of several): as the sequence (Q9HB20 1-99) above
Chain of human TAPP1 C-terminal PH domain (residues 95 to 404), GST fusion (Q9HB21 95-404): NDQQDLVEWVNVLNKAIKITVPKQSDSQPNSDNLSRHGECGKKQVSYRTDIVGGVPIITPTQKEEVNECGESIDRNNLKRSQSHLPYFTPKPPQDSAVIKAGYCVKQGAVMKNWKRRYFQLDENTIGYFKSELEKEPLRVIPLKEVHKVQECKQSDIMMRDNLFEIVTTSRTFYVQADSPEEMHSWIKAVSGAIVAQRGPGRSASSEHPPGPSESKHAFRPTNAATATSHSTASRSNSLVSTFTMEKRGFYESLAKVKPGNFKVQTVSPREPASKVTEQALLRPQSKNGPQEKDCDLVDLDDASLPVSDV
T1 sequence (Q9H4M7 15-169): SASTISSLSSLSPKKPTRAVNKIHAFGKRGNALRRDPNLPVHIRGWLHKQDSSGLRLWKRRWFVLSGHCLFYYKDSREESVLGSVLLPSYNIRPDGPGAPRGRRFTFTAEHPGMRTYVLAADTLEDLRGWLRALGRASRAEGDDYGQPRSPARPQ
Chain of human evectin-2 PH domain (residues 1 to 167), GST fusion (Q96CS7 1-167): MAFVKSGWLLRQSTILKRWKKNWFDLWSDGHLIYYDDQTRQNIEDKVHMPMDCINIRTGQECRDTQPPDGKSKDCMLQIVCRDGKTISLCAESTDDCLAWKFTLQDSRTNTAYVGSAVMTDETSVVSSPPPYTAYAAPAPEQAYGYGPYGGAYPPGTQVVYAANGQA
T3 sequence (Q9ERS5 174-425): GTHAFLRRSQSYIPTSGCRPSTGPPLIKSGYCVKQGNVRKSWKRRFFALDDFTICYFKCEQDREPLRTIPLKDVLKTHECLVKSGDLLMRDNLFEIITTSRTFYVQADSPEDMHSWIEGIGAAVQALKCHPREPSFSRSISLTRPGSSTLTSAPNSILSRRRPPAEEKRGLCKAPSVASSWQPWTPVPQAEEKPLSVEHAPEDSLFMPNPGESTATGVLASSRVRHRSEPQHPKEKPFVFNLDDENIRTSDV

**Q.** Which Kd [1] does the source give for `CCCCCCCCCCCCCCCC(=O)OC[C@H](COP(=O)(O)O[C@@H]1[C@H](O)[C@H](OP(=O)(O)O)[C@@H](O)[C@H](O)[C@H]1O)OC(=O)CCCCCCCCCCCCCCC` [PtdIns3P] here?
**A.** Its Kd is 325 nM.

**Q.** What does the source list for `CCCCCCCCCCCCCCCC(=O)OC[C@H](COP(=O)(O)O[C@H]1[C@H](O)[C@@H](O)[C@H](OP(=O)(O)O)[C@@H](O)[C@H]1O)OC(=O)CCCCCCCCCCCCCCC` [PtdIns4P, phosphoinositol 4-monophosphate]?
**A.** phosphoinositide binding [2]: only binds; phosphoinositide binding [3]: binds specifically; phosphoinositide binding ([3]; listed as PtdIns-4P): specifically binds; Kd [4]: 20 nM

**Q.** For `CCCCCCCCCCCCCCCC(=O)OC[C@H](COP(=O)(O)O[C@H]1[C@H](O)[C@@H](OP(=O)(O)O)[C@H](OP(=O)(O)O)[C@@H](OP(=O)(O)O)[C@H]1O)OC(=O)CCCCCCCCCCCCCCC` [PtdIns(3,4,5)P3, phospatidylinositol (3,4,5)-trisphosphate], which phosphoinositide binding (GST-DAPP1) is on record?
**A.** Its phosphoinositide binding is “binds”.

**Q.** And the phosphoinositide binding [5]?
**A.** Its phosphoinositide binding is “moderate affinity”.

**Q.** What about the phosphoinositide binding [6] of the same compound?
**A.** The phosphoinositide binding was “did not bind”.

**Q.** What about the phosphoinositide binding [7] of the same compound?
**A.** Its phosphoinositide binding is “did not bind”.

**Q.** What about the phosphoinositide binding (GST-GRP1) of the same compound?
**A.** Its phosphoinositide binding is “binds only”.

**Q.** What about the phosphoinositide binding [8] of the same compound?
**A.** Its phosphoinositide binding is “did not bind”.

**Q.** For `CCCCCCCCCCCCCCCC(=O)OC[C@H](COP(=O)(O)O[C@@H]1[C@H](O)[C@H](O)[C@@H](OP(=O)(O)O)[C@H](OP(=O)(O)O)[C@H]1O)OC(=O)CCCCCCCCCCCCCCC` [PtdIns(4,5)P2, phosphatidylinositol 4,5-bisphosphate], which phosphoinositide binding [9] is on record?
**A.** The phosphoinositide binding was “binds only”.

**Q.** And the phosphoinositide binding [2]?
**A.** Its phosphoinositide binding is “does not interact”.

**Q.** Which phosphoinositide binding [8] does the source give for `CCCCC/C=C\C/C=C\C/C=C\C/C=C\CCCC(=O)O[C@H](COC(=O)CCCCCCCCCCCCCCCCC)COP(=O)(O)O[C@H]1[C@H](O)[C@@H](OP(=O)(O)O)[C@H](OP(=O)(O)O)[C@@H](OP(=O)(O)O)[C@H]1O` [sn-1-stearoyl-2-arachidonyl-D-PtdIns(3,4,5)P3] here?
**A.** Its phosphoinositide binding is “did not bind”.

**Q.** For phospatidylinositol, which lipid binding [10] is on record?
**A.** Its lipid binding is “None of the PH domains whose lipid binding properties were investigated in FIG. 2, interacted”.

**Q.** Which lipid binding [10] does the source give for phosphatidylcholine here?
**A.** The lipid binding was “None of the PH domains whose lipid binding properties were investigated in FIG. 2, interacted”.

**Q.** For phosphatidylethanolamine, which lipid binding [10] is on record?
**A.** Its lipid binding is “None of the PH domains whose lipid binding properties were investigated in FIG. 2, interacted”.

**Q.** Which lipid binding [10] does the source give for phosphatidylserine here?
**A.** Its lipid binding is “None of the PH domains whose lipid binding properties were investigated in FIG. 2, interacted”.
